From the supplement of paper PMC10307832

What was measured:
Experiment in all cases: relative viability (nuclei count vs DMSO), 5 days (fraction); higher = more cells survive
[1] = compound: O=C(Nc1c[nH]nc1-c1nc2ccc(CN3CCOCC3)cc2[nH]1)NC1CC1 [AT9283]
In short: (§1)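 Only plates meeting two conditions passed: control CV below 25% and at least one doubling. Lung cancer cell lines, kept overnight at 37 °C in 1536-well plates, were pinned with five library-drug doses (not always all listed) √10 apart on vehicle-anchored plates and grown 5 days without medium change. A one-step fix, permeabilisation and Hoechst stain preceded 4× imaging and MetaXpress nuclear counting. Viability equals treated-well nuclei divided by vehicle-well nuclei, as the median over plates.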

[2] = compound: C#Cc1cccc(Nc2ncnc3cc(OCCOC)c(OCCOC)cc23)c1 [Erlotinib]
In short: as §1

[3] = compound: N=C(N)NC(=N)NCCc1ccccc1 [Phenformin] (anchor plate); conditions: 250 µM
In short: as §1

[4] = compound: O=C(Nc1c[nH]nc1-c1nc2ccc(CN3CCOCC3)cc2[nH]1)NC1CC1 [AT9283] + C[C@]1(O)C[C@@H](c2nc(-c3ccc4ccc(-c5ccccc5)nc4c3)c3c(N)nccn32)C1 [Linsitinib] (partner 1 µM)
In short: (§2)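 For relative viability, nuclei counts in treated wells were divided by those in vehicle wells. Lung cancer cell lines had been pin-tool dosed in 1536-well plates the day after seeding and cultured for 5 days, then fixed and stained in one step (final 0.05% Triton X-100, 1% formaldehyde, 1 ug/ml Hoechst) and imaged at 4×. Doses were one drug alone or a fixed anchor-drug dose plus five library-drug doses (not always all listed) in √10 steps, and values are duplicate-plate medians.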

[5] = compound: C#Cc1cccc(Nc2ncnc3cc(OCCOC)c(OCCOC)cc23)c1 [Erlotinib] + CCNC(=O)c1noc(-c2cc(C(C)C)c(O)cc2O)c1-c1ccc(CN2CCOCC2)cc1 [Luminespib] (partner 0.01 µM)
In short: as §2

[6] = compound: C#Cc1cccc(Nc2ncnc3cc(OCCOC)c(OCCOC)cc23)c1 [Erlotinib] + CC(C)C[C@H](NC(=O)[C@H](Cc1ccccc1)NC(=O)c1cnccn1)B(O)O [Bortezomib] (partner 0.002 µM)
In short: as §2

Cell Line: NCI-H441
- relative viability ([1]; 0.003 µM): 1.09
- relative viability ([1]; 0.03 µM): 0.856
- relative viability ([1]; 0.09487 µM): 0.37
- relative viability ([1]; 0.3 µM): 0.337
- relative viability ([2]; 0.2 µM): 1.1
- relative viability ([2]; 0.6325 µM): 1.05
- relative viability ([2]; 2 µM): 0.848
- relative viability [3]: 0.87
- relative viability ([4]; first compound 0.003 µM): 0.535
- relative viability ([4]; first compound 0.03 µM): 0.474
- relative viability ([4]; first compound 0.09487 µM): 0.142
- relative viability ([4]; first compound 0.3 µM): 0.165
- relative viability ([5]; first compound 0.02 µM): 0.259
- relative viability ([5]; first compound 0.2 µM): 0.32
- relative viability ([5]; first compound 0.6325 µM): 0.345
- relative viability ([5]; first compound 2 µM): 0.345
- relative viability ([6]; first compound 0.02 µM): 0.724
- relative viability ([6]; first compound 0.2 µM): 0.471
- relative viability ([6]; first compound 0.6325 µM): 0.383
- relative viability ([6]; first compound 2 µM): 0.219
